Test results reported in article PMC8791557 (Environment international, 2021).
Like-named read-outs stand apart in the source and are kept apart here.

Tests used:
[1] = format: in vivo, human; conditions: for Tmax of metabolite: median; for k1e / k12 / k21 / ka / α / β: two-compartmental model
[2] = human, in vivo; cited from earlier work
[3] = metabolite in plasma after 25 ng [14C]-BaP oral
[4] = metabolite in plasma after 50 ng [14C]-BaP oral
[5] = metabolite in plasma after 100 ng [14C]-BaP oral
[6] = metabolite in plasma after 250 ng [14C]-BaP oral
[7] = 50 ng [14C]-BaP oral, mean ± SD
[8] = 100 ng [14C]-BaP oral, mean ± SD
[9] = 250 ng [14C]-BaP oral, mean ± SD

Oc1ccc2ccc3c4ccccc4cc4ccc1c2c43 [3-OH, 3 - OH BaP]
Tmax of metabolite [1, 3]: 1.0 h | Tmax of metabolite [1, 4]: 1.25 h | Tmax of metabolite [1, 5]: 1.0 h | Tmax of metabolite [1, 6]: 1.5 h

Oc1ccc2cc3ccc4cccc5ccc(c2c1)c3c45 [9-OH, 9 - OH BaP]
Tmax of metabolite [1, 3]: 0.5 h | Tmax of metabolite [1, 4]: 1.0 h | Tmax of metabolite [1, 5]: 1.0 h | Tmax of metabolite [1, 6]: 0.75 h

c1ccc2c(c1)cc1ccc3cccc4ccc2c1c34 [[^14C]-BaP, Benzo[a]pyrene]
k1e ([1]; 25 ng [14C]-BaP oral, n = 1): 0.0068 NA 1/h | k12 ([1]; 25 ng [14C]-BaP oral, n = 1): 0.331 NA 1/h | k21 ([1]; 25 ng [14C]-BaP oral, n = 1): 0.028 NA 1/h | ka ([1]; 25 ng [14C]-BaP oral, n = 1): 592 NA 1/h | α ([1]; 25 ng [14C]-BaP oral, n = 1): 0.366 NA 1/h | β ([1]; 25 ng [14C]-BaP oral, n = 1): 5.03 × 10^−4 NA 1/h | k1e [1, 7]: 0.694 ± 0.412 n = 5 1/h | k12 [1, 7]: 0.83 ± 1.11 n = 5 1/h | k21 [1, 7]: 0.270 ± 0.253 n = 5 1/h | ka [1, 7]: 1.30 × 10^7 ± 2.90 × 10^7 n = 5 1/h | α [1, 7]: 1.69 ± 0.89 n = 5 1/h | β [1, 7]: 0.105 ± 0.164 n = 5 1/h | k1e [1, 8]: 0.558 ± 0.897 n = 6 1/h | k12 [1, 8]: 2.60 ± 3.45 n = 6 1/h | k21 [1, 8]: 0.190 ± 0.180 n = 6 1/h | ka [1, 8]: 3.52 ± 4.75 n = 6 1/h | α [1, 8]: 3.33 ± 4.28 n = 6 1/h | β [1, 8]: 0.020 ± 0.021 n = 6 1/h | k1e [1, 9]: 1.25 ± 1.71 n = 7 1/h | k12 [1, 9]: 4.27 ± 6.92 n = 7 1/h | k21 [1, 9]: 0.290 ± 0.564 n = 7 1/h | ka [1, 9]: 43.2 ± 111 n = 7 1/h | α [1, 9]: 5.80 ± 6.64 n = 7 1/h | β [1, 9]: 0.014 ± 0.019 n = 7 1/h | increase of compartmental model apparent volume of distribution ([1]; both, human, in vivo): 4.6 × | increase of mean non-compartmental apparent volume of distribution ([1]; both, human, in vivo): 15 × | Tmax ([1]; both, human, in vivo, Tmax): 0.5 to 1 h | half-life ([1]; both, human, in vivo, average half-life across doses): 46.5 ± 58.2 h | Tmax ([1]; both, human, in vivo, median Tmax): 0.5 h | Tmax ([1]; both, human, in vivo, po, Tmax (Median)): 0.5 h | Tmax ([1]; both, human, in vivo, po, Tmax (Range)): 0.5 to 4 h | Tmax ([1]; both, human, in vivo, po, median Tmax): 0.5 h | half-life ([1]; both, human, in vivo, po, α half-life): 0.484 ± 0.187 h | AUC0–48h, range of dose-group means ([1]; human, in vivo): 12.2 ± 14.5 to 88.5 ± 14.1 | Cmax, range of dose-group means ([1]; human, in vivo): 2.51 ± 2.53 to 13.8 ± 9.52 | Clearance ([1]; human, in vivo, po): 811 n = 1 L/h | half-life ([1]; human, in vivo, po, Half-life): 4.31 h | half-life ([1]; human, in vivo, po, α half-life): 1.89 h | half-life ([1]; human, in vivo, po, β half-life): 1310 h | Tmax [2]: 0.75 to 1.0 h
